Reference: PMC3155816 (Journal of medicinal chemistry, 2011)
pEC50, pIC50: −log10 of the molar value. ≈ marks a conversion by molar mass, not a printed value. Where “and” joins values, the source holds several entries; their conditions need not be identical. Identical values can stand only once.

Assays:
[1] = system: Vaccinia virus (WR strain); experiment: microbe, parasite or virus in culture; type: cell-based; conditions: Orthopoxvirus vaccinia, BSC-1, read-out: Plaque Reduction EC50
[2] = target: vaccinia E9 DNA polymerase with A20 and D4 (processivity complex) (Vaccinia virus, UniProt P04303); experiment: biochemical
[3] = Cytotoxicity by LDH release; type: cell-based; conditions: African green monkey, BSC-1 cells
[4] = Solubility in PBS by chemiluminescence of total nitrogen; type: physicochemical
vaccinia virus D4 = vaccinia virus D4 (Vaccinia virus, UniProt P04303); type: binding

SMILES	pEC50 [1]	solubility [4]	further results
Cc1ccc2oc(-c3ccc(Cl)cc3)c(O)c(=O)c2c1 [Compound 5]	≤ 3.70		
O=C1c2ccccc2-c2onc3c(NCCO)cc(NC4CCCCC4)c1c23 [Compound 9, 10-(cyclohexylamino)-12-[(2-hydroxyethyl)amino]-15-oxa-14-azatetracyclohexadeca-1(16),2,4,6,9,11,13-heptaen-8-one]	5.09	1.4 µg/mL and 3.6 µM	pIC50 [2]: 4.47; CC50 at 20 h [3]: 127 µM; Tm (vaccinia virus D4): 51.4 ± 9.1 °C; ΔTm (vaccinia virus D4): 13.1 °C
Oc1ccc(NCc2ccccc2OCc2ccccc2)cc1 [Compound 10, 4-({[2-(benzyloxy)phenyl]methyl}amino)phenol]	5.01	3.5 µM (≈ 1.07 µg/mL)	
COc1ccc(Nc2nc(Nc3ccc(OC)cc3OC)nc(N3CCOCC3)n2)c(OC)c1 [Compound 12]	≤ 3.70		
Cn1c(=O)n(C)c2cc(NS(=O)(=O)c3ccc(C(C)(C)C)cc3)c(NCc3ccccc3)cc21 [Compound 14, N-[6-(benzylamino)-1,3-dimethyl-2-oxo-2,3-dihydro-1H-1,3-benzodiazol-5-yl]-4-tert-butylbenzene-1-sulfonamide]		1.9 µM (≈ 0.909 µg/mL)	
Cc1cc2n(n1)C(c1cc(C(C)(C)C)c(O)cc1O)Nc1ccccc1-2 (stereo not shown) [Compound 15, 4-tert-butyl-6-{2-methyl-5H,6H-pyrazolo[1,5-c]quinazolin-5-yl}benzene-1,3-diol]	4.63	54.7 µM (≈ 19.1 µg/mL)	
COc1ccc(C)cc1N(CC(=O)N1CCC(C)CC1)S(=O)(=O)c1ccc(C)cc1 [Compound 26]	≤ 3.70		
COc1cc(-c2nc(-c3ccccc3)c(-c3ccc(Br)cc3)[nH]2)cc(OC)c1O [Compound 27, 4-[5-(4-bromophenyl)-4-phenyl-1H-imidazol-2-yl]-2,6-dimethoxyphenol]	4.65	3.2 µM (≈ 1.44 µg/mL)	
